# Biological target: T1, PERK (Homo sapiens, UniProt Q9NZJ5)
# T1 sequence (Q9NZJ5 30-1116): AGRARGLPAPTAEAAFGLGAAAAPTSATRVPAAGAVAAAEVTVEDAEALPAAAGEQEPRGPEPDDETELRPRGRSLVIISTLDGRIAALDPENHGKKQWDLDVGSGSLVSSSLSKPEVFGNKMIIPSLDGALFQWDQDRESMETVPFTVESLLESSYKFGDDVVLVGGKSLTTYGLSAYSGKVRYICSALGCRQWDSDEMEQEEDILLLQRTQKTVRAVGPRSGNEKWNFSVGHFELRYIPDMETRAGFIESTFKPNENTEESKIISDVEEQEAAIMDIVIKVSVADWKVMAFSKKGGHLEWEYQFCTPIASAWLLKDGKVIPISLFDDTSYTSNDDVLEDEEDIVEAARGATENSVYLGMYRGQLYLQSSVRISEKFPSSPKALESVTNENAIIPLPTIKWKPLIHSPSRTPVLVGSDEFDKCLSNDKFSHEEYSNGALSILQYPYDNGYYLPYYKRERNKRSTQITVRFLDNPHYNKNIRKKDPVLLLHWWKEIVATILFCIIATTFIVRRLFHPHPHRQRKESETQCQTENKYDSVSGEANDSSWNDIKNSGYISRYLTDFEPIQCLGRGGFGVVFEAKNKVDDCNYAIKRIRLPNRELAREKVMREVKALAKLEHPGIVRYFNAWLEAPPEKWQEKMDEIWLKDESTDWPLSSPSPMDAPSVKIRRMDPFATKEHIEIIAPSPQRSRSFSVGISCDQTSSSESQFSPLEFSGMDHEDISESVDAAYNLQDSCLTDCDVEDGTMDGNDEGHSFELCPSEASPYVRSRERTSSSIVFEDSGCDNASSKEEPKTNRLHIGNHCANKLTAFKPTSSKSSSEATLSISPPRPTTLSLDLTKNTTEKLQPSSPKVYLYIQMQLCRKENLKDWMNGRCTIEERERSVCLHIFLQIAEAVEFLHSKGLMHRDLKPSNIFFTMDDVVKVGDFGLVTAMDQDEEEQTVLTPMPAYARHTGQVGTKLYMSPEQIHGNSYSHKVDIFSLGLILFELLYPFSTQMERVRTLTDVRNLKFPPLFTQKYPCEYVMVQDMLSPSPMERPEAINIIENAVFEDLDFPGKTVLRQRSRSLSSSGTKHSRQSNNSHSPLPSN
# Experiment: PERK enzyme assay (HTRF)
# Format: biochemical
# Conditions: 500 μM ATP; at least one experimental run; read-out: PERK Enzyme (500 μM ATP) IC50
# Outline: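 GST-PERK (0.75 nM final) pre-incubated 30–60 min with compound (≤1% DMSO) in HEPES pH 7.5/CHAPS/MgCl2/DTT, then 500 μM ATP and 40 nM biotin-eIF2α added for 60 min. EDTA quench; HTRF detection of phospho-eIF2α (Eu anti-rabbit/streptavidin-APC) read after 2 h; IC50 from concentration series.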
row,IC50,SMILES
1,6.1 nM,"CN1C(=O)N(c2ccc(-c3cn(C)c4ncnc(N)c34)c(Cl)c2)CC1c1cc(F)cc(F)c1 (single isomer, unassigned) [Example 127, 1-(4-(4-amino-7-methyl-7H-pyrrolo[2,3-d]pyrimidin-5-yl)-3-chlorophenyl)-4-(3,5-difluorophenyl)-3-methylimidazolidin-2-one]"
2,3.9 nM,"CN1C(=O)N(c2ccc(-c3cn(C)c4ncnc(N)c34)c(F)c2)CC1c1ccc(F)cc1 (single isomer, unassigned) [Example 59, 1-(4-(4-amino-7-methyl-7H-pyrrolo[2,3-d]pyrimidin-5-yl)-3-fluorophenyl)-4-(4-fluorophenyl)-3-methylimidazolidin-2-one]"
3,86.9 nM,"Cc1nc(N)c2c(-c3ccc(N4CC(c5ccc(F)cc5F)N(C)C4=O)cc3F)cn(C)c2n1 (single isomer, unassigned) [Example 66, 1-(4-(4-amino-2,7-dimethyl-7H-pyrrolo[2,3-d]pyrimidin-5-yl)-3-fluorophenyl)-4-(2,4-difluorophenyl)-3-methylimidazolidin-2-one]"

# Same assay, conditions: PERK Enzyme (500 μM ATP) IC50; at least one experimental run; read-out: PERK Activity
row,SMILES,IC50
1,"CN1C(=O)N(c2ccc(-c3cn(C)c4ncnc(N)c34)c(F)c2)CC1c1cc(F)cc(C(F)(F)F)c1 (stereo not drawn) [Example 84, 1-(4-(4-amino-7-methyl-7H-pyrrolo[2,3-d]pyrimidin-5-yl)-3-fluorophenyl)-4-(3-fluoro-5-(trifluoromethyl)phenyl)-3-methylimidazolidin-2-one]",100 to 1000 nM
2,"Cn1cc(-c2ccc(N3CC(c4cc(F)ccc4F)NC3=O)cc2F)c2c(N)ncnc21 (stereo not drawn) [Example 21, 1-(4-(4-amino-7-methyl-7H-pyrrolo[2,3-d]pyrimidin-5-yl)-3-fluorophenyl)-4-(2,5-difluorophenyl)imidazolidin-2-one]",100 to 1000 nM
3,"CCN1C(=O)N(c2ccc(-c3cn(C)c4ncnc(N)c34)c(F)c2)CC1c1ccc(F)cc1F (stereo not drawn) [Example 23, 1-(4-(4-amino-7-methyl-7H-pyrrolo[2,3-d]pyrimidin-5-yl)-3-fluorophenyl)-4-(2,4-difluorophenyl)-3-ethylimidazolidin-2-one]",100 to 1000 nM
4,"CN1C(=O)N(c2ccc(-c3cn(C)c4ncnc(N)c34)c(F)c2)CC1c1cccc(F)c1F (single isomer, unassigned) [Example 77, 1-(4-(4-amino-7-methyl-7H-pyrrolo[2,3-d]pyrimidin-5-yl)-3-fluorophenyl)-4-(2,3-difluorophenyl)-3-methylimidazolidin-2-one]",< 100 nM
5,"Cc1nc(N)c2c(-c3ccc(N4CC(c5ccc(F)cc5F)N(C)C4=O)cc3F)cn(C)c2n1 (stereo not drawn) [Example 65, 1-(4-(4-amino-2,7-dimethyl-7H-pyrrolo[2,3-d]pyrimidin-5-yl)-3-fluorophenyl)-4-(2,4-difluorophenyl)-3-methylimidazolidin-2-one]",100 to 1000 nM
6,"CN1C(=O)N(c2ccc(-c3cn(C)c4ncnc(N)c34)c(F)c2)CC1c1ccc(F)cc1 (single isomer, unassigned) [Example 59, 1-(4-(4-amino-7-methyl-7H-pyrrolo[2,3-d]pyrimidin-5-yl)-3-fluorophenyl)-4-(4-fluorophenyl)-3-methylimidazolidin-2-one]",< 100 nM
7,"CCN1C(=O)N(c2ccc(-c3cn(C)c4ncnc(N)c34)c(F)c2)CC1c1cc(F)ccc1F (racemic) [Example 1, 1-(4-(4-amino-7-methyl-7H-pyrrolo[2,3-d]pyrimidin-5-yl)-3-fluorophenyl)-4-(2,5-difluorophenyl)-3-ethylimidazolidin-2-one]",100 to 1000 nM
8,"Cn1cc(-c2ccc(N3CC(C4CCCC4)CC3=O)cc2F)c2c(N)ncnc21 (stereo not drawn) [Example 28, 1-(4-(4-amino-7-methyl-7H-pyrrolo[2,3-d]pyrimidin-5-yl)-3-fluorophenyl)-4-cyclopentylpyrrolidin-2-one]",100 to 1000 nM
9,"Cc1nc(N)c2c(-c3ccc(N4CC(c5ccc(F)cc5F)N(C)C4=O)cc3F)cn(C)c2n1 (single isomer, unassigned) [Example 66, 1-(4-(4-amino-2,7-dimethyl-7H-pyrrolo[2,3-d]pyrimidin-5-yl)-3-fluorophenyl)-4-(2,4-difluorophenyl)-3-methylimidazolidin-2-one]",< 100 nM

# Second part, the compound after the results:
row,IC50,SMILES
1,< 100 nM,"CCN1C(=O)N(c2ccc(-c3cn(C4CC4)c4ncnc(N)c34)c(F)c2)CC1c1cc(F)cc(F)c1 (single isomer, unassigned) [Example 174, 1-(4-(4-amino-7-cyclopropyl-7H-pyrrolo[2,3-d]pyrimidin-5-yl)-3-fluorophenyl)-4-(3,5-difluorophenyl)-3-ethylimidazolidin-2-one]"
2,100 to 1000 nM,"Cc1nc(N)c2c(-c3ccc(N4CC(c5ccc(Cl)nc5)N(C)C4=O)cc3F)cn(C)c2n1 (single isomer, unassigned) [Example 136, 1-(4-(4-amino-2,7-dimethyl-7H-pyrrolo[2,3-d]pyrimidin-5-yl)-3-fluorophenyl)-4-(6-chloropyridin-3-yl)-3-methylimidazolidin-2-one]"
3,< 100 nM,"CCn1cc(-c2ccc(N3CC(c4ccc(F)cc4F)N(C)C3=O)cc2F)c2c(N)nc(C)nc21 (stereo not drawn) [Example 109, 1-(4-(4-amino-7-ethyl-2-methyl-7H-pyrrolo[2,3-d]pyrimidin-5-yl)-3-fluorophenyl)-4-(2,4-difluorophenyl)-3-methylimidazolidin-2-one]"
4,< 100 nM,"Cc1cc(N2CC(c3cc(F)cc(F)c3)N(C)C2=O)ccc1-c1cn(C)c2ncnc(N)c12 (stereo not drawn) [Example 118, 1-(4-(4-amino-7-methyl-7H-pyrrolo[2,3-d]pyrimidin-5-yl)-3-methylphenyl)-4-(3,5-difluorophenyl)-3-methylimidazolidin-2-one]"
5,< 100 nM,"CN1C(=O)N(c2ccc(-c3cn(C)c4ncnc(N)c34)c(Cl)c2)CC1c1cc(F)cc(F)c1 (single isomer, unassigned) [Example 127, 1-(4-(4-amino-7-methyl-7H-pyrrolo[2,3-d]pyrimidin-5-yl)-3-chlorophenyl)-4-(3,5-difluorophenyl)-3-methylimidazolidin-2-one]"
6,< 100 nM,"CN1C(=O)N(c2ccc(-c3cn(C4CC4)c4ncnc(N)c34)c(F)c2)CC1c1ccc(Cl)cc1 (single isomer, unassigned) [Example 168, 1-(4-(4-amino-7-cyclopropyl-7H-pyrrolo[2,3-d]pyrimidin-5-yl)-3-fluorophenyl)-4-(4-chlorophenyl)-3-methylimidazolidin-2-one]"
7,< 100 nM,"CN1C(=O)N(c2ccc(-c3cn(C4CC4)c4ncnc(N)c34)c(Cl)c2)CC1c1cc(F)cc(F)c1 (stereo not drawn) [Example 122, 1-(4-(4-amino-7-cyclopropyl-7H-pyrrolo[2,3-d]pyrimidin-5-yl)-3-chlorophenyl)-4-(3,5-difluorophenyl)-3-methylimidazolidin-2-one]"
8,< 100 nM,"CN1C(=O)N(c2ccc(-c3cn(C)c4ncnc(N)c34)c(F)c2)CC1c1ccc(F)c(F)c1 (stereo not drawn) [Example 96, 1-(4-(4-amino-7-methyl-7H-pyrrolo[2,3-d]pyrimidin-5-yl)-3-fluorophenyl)-4-(3,4-difluorophenyl)-3-methylimidazolidin-2-one]"
9,100 to 1000 nM,"Cc1nc(N)c2c(-c3ccc(N4CC(c5cncc(F)c5)N(C)C4=O)cc3F)cn(C)c2n1 (single isomer, unassigned) [Example 111, 1-(4-(4-amino-2,7-dimethyl-7H-pyrrolo[2,3-d]pyrimidin-5-yl)-3-fluorophenyl)-4-(5-fluoropyridin-3-yl)-3-methylimidazolidin-2-one]"
10,< 100 nM,"CN1C(=O)N(c2ccc(-c3cn(C4CC4)c4ncnc(N)c34)c(F)c2)CC1c1cc(F)cc(F)c1F (single isomer, unassigned) [Example 142, 1-(4-(4-amino-7-cyclopropyl-7H-pyrrolo[2,3-d]pyrimidin-5-yl)-3-fluorophenyl)-3-methyl-4-(2,3,5-trifluorophenyl)imidazolidin-2-one]"
11,100 to 1000 nM,"CCN1C(=O)N(c2ccc(-c3cn(C(C)C)c4ncnc(N)c34)c(F)c2)CC1c1cc(F)ccc1F (stereo not drawn) [Example 106, 1-(4-(4-amino-7-isopropyl-7H-pyrrolo[2,3-d]pyrimidin-5-yl)-3-fluorophenyl)-4-(2,5-difluorophenyl)-3-ethylimidazolidin-2-one]"
12,< 100 nM,"CN1C(=O)N(c2ccc(-c3cn(C4CC4)c4ncnc(N)c34)c(F)c2)CC1c1ccc(F)c(Cl)c1 (stereo not drawn) [Example 132, 1-(4-(4-amino-7-cyclopropyl-7H-pyrrolo[2,3-d]pyrimidin-5-yl)-3-fluorophenyl)-4-(3-chloro-4-fluorophenyl)-3-methylimidazolidin-2-one]"

# From US20180237441A1, “Chemical Compounds” (GlaxoSmithKline Intellectual Property (No.2) Limited, priority 2015, published 2018)
